Experimental data from BigSolDB 2.1.

Cc1nc2n(c(=O)c1CCN1CCC(c3noc4cc(F)ccc34)CC1)CCCC2O (stereo not given)
solubility (mole fraction)
Conditions | 288.15 K | 293.15 K | 298.15 K | 303.15 K | 308.15 K | 313.15 K | 318.15 K | 323.15 K | 328.15 K
in 1,4-dioxane | 0.00042 | 0.000595 | 0.000832 | 0.00115 | 0.00159 | 0.00214 | 0.00292 | 0.00382 | 0.00495
in THF | 0.000399 | 0.00055 | 0.000757 | 0.00101 | 0.00134 | 0.00177 | 0.00232 | 0.00312 | 0.00391
in acetone | 6.42e-05 | 8.92e-05 | 0.000126 | 0.000171 | 0.000233 | 0.000314 | 0.000438 | 0.000556 | 0.000702
in acetonitrile | 2.45e-05 | 3.58e-05 | 5.16e-05 | 7.32e-05 | 0.000101 | 0.000143 | 0.000195 | 0.000263 | 0.00035
in ethanol | 6.58e-05 | 9.25e-05 | 0.000129 | 0.000178 | 0.000236 | 0.000338 | 0.00045 | 0.00059 | 0.00079
in ethyl acetate | 5.95e-05 | 8.43e-05 | 0.000118 | 0.000164 | 0.000225 | 0.000311 | 0.000415 | 0.00056 | 0.000742
in isopropanol | 2.65e-05 | 3.97e-05 | 5.8e-05 | 8.16e-05 | 0.00013 | 0.000179 | 0.000269 | 0.000363 | 0.000502
in methanol | 0.000103 | 0.000143 | 0.000192 | 0.00026 | 0.000347 | 0.000463 | 0.000618 | 0.000815 | 0.00105
in methyl acetate | 7.29e-05 | 0.000101 | 0.000141 | 0.000196 | 0.000266 | 0.000361 | 0.000503 | 0.000643 | 0.000814
in n-butanol | 8.99e-05 | 0.000128 | 0.000179 | 0.000249 | 0.000347 | 0.000443 | 0.000587 | 0.000829 | 0.00115
in n-butyl acetate | 5.19e-05 | 7.43e-05 | 0.000105 | 0.000147 | 0.000204 | 0.000282 | 0.000381 | 0.000514 | 0.000692
in n-hexanol | 7.11e-05 | 0.00012 | 0.000175 | 0.000244 | 0.000332 | 0.000465 | 0.000682 | 0.000958 | 0.00125
in n-pentanol | 9.07e-05 | 0.000129 | 0.000184 | 0.000258 | 0.000364 | 0.000553 | 0.000742 | 0.000963 | 0.00128
in n-propanol | 7.03e-05 | 0.000102 | 0.000133 | 0.000214 | 0.000298 | 0.000391 | 0.00056 | 0.000768 | 0.00107
in n-propyl acetate | 5.47e-05 | 7.82e-05 | 0.000111 | 0.000155 | 0.000214 | 0.000294 | 0.000398 | 0.000537 | 0.000728
